From patent publication US5484717A, “Antibiotic 31F508α1, 31F508α2, 31F508β1, 31F508β2” (American Cyanamid Company, priority 1995, dated 1996) come the findings set out here.

One experiment relates to E. coli (J2175). The experiment is described as follows: In vitro antibacterial activity, agar dilution MIC. In kind it is cell-based. To be noted: Escherichia coli, 18 h, read-out: Minimum Inhibitory Concentration. The procedure: (§1) The in vitro antibacterial activity of 31F508α1 and α2 is determined against a spectrum of gram-positive and gram-negative bacteria by a standard agar dilution method. Mueller-Hinton agar with and without 5% sheep blood and two-fold decreasing concentrations of either 31F508α1 or α2 are poured into petri dishes. The agar surfaces are inoculated with 1 to 5×10^4 colony forming units of bacteria by means of the Steers replicating device. The lowest concentration of antibiotic that inhibits growth of a bacterial strain after 18 hours incubation is recorded as the minimal inhibitory concentration for that strain. The results are given in Table V with sheeps blood added to the agar.
For orientation: In agar dilution the substance is mixed into plates at graded concentrations.

For the next experiment, the system named is E. coli (J2445). The experiment is described as follows: In vitro antibacterial activity, agar dilution MIC. As to conditions: Escherichia coli, 18 h, read-out: Minimum Inhibitory Concentration. The experiment is classed as cell-based. As for the experimental part: as §1
In the next experiment the test system is E. faecalis (ID-1829). The experiment is described as follows: In vitro antibacterial activity, agar dilution MIC. The experiment is classed as cell-based. To be noted: Enterococcus faecalis, 18 h, read-out: Minimum Inhibitory Concentration. As for the experimental part:
as §1

In the next experiment the test system is E. faecium (12202). The experiment is described as follows: In vitro antibacterial activity, agar dilution MIC. To be noted: Enterococcus faecium, 18 h, read-out: Minimum Inhibitory Concentration. The experiment is classed as cell-based. As for the experimental part:
as §1

Another experiment has as its system E. faecium (ID-4133). The experiment is described as follows: In vitro antibacterial activity, agar dilution MIC. The experiment is classed as cell-based. As to conditions: 18 hours; for MIC: Enterococcus faecium, without sheep blood, read-out: Minimum Inhibitory Concentration. The procedure: as §1
In the next experiment the test system is S. lutea (ATCC 9341). The experiment is described as follows: In vitro antibacterial activity, agar dilution MIC. To be noted: 18 hours; for MIC: Micrococcus luteus, ATCC9341, without sheep blood, read-out: Minimum Inhibitory Concentration. The experiment is classed as cell-based. The procedure: as §1
In experiment [1] the test system is Staphylococcus aureus (SMITH). The experiment is described as follows: In vitro antibacterial activity, agar dilution MIC. In kind it is cell-based. As to conditions: 18 h, read-out: Minimum Inhibitory Concentration. The procedure: as §1
The subject of experiment [2] is Streptococcus pneumoniae (ID-4444). The experiment is described as follows: In vitro antibacterial activity, agar dilution MIC. As to conditions: 18 h, read-out: Minimum Inhibitory Concentration. The experiment is classed as cell-based. The procedure:
as §1

The test system of another experiment is Escherichia coli#311. Description: In vivo antibacterial activity in intraperitoneally infected mice. To be noted: one half hour after infection. Also noted: species or system female CD-1 mice. As for the experimental part: The in vivo antibacterial activity of antibiotic 31F508α2 is established by infecting female CD-1 mice from Charles River Laboratories,weighing 20+-- 2 g each, intraperitoneally of sufficient bacterial cells suspended in either broth or 5% hog gastric mucin to kill non-treated controls within 24-48 hours. Two-fold serially diluted doses of the antibacterial agent contained in phosphate buffered saline (PBS, pH 7.4, 0.01M) are administered intravenously (0.2 ml) or contained in 0.2% aqueous agar, subcutaneously (0.5 ml) or orally (0.5 ml) one half hour after infection. In each test, five mice are treated per dose level.

For the next experiment, the system named is CNS (ID-3276). The experiment is described as follows: In vitro antibacterial activity, agar dilution MIC. The experiment is classed as cell-based. As to conditions: 18 h, read-out: Minimum Inhibitory Concentration, CNS (ID-3276), without sheep blood. The procedure: as §1

SMILES strings stand for the structures. In brackets after ≈: the same amount, converted by molar mass. Where two headings read alike, the source gives them in different places.

Consider `COc1c(C)c(O)c2c(c1O)C1COC3C4CC5C(C(C2N2CCOC52)N13)N4C` (stereo not drawn) [31F508α2], for which the MIC in the experiment on E. coli (J2175) (without sheep blood) amounted to 1000 ng/mL (≈ 2.49 µM); in the experiment on E. coli (J2445) (without sheep blood) it was 4 ng/mL (≈ 0.00996 µM); in the experiment with E. faecalis (ID-1829) (without sheep blood), 60 ng/mL (≈ 0.149 µM); in the experiment with E. faecium (12202) (without sheep blood), 15 ng/mL (≈ 0.0374 µM); in the experiment on E. faecium (ID-4133), 2 ng/mL (≈ 0.00498 µM); in the experiment with S. lutea (ATCC 9341), 2 ng/mL (≈ 0.00498 µM). The MIC in experiment [1] (without sheep blood) and in experiment [2] (without sheep blood) was 2 ng/mL (≈ 0.00498 µM) in each case. Also, the “Survival Ratios” value is 0/5 in the experiment on Escherichia coli#311 (SIV (intravenous), 0.25 Mg/Kg); 0/5 in the experiment on Escherichia coli#311 (SIV (intravenous), 0.5 Mg/Kg); 0/5 with Escherichia coli#311 (SIV (intravenous), 1 Mg/Kg); 0/5 in the experiment on Escherichia coli#311 (SIV (intravenous), 2 Mg/Kg); 0/5 in the experiment on Escherichia coli#311 (SIV (intravenous), 4 Mg/Kg); 0/5 in the experiment with Escherichia coli#311 (SOD (oral), 0.25 Mg/Kg). In addition, the “Survival Ratios” value is 0/5 in the experiment with Escherichia coli#311 (SOD (oral), 0.5 Mg/Kg); 0/5 with Escherichia coli#311 (SOD (oral), 1 Mg/Kg); 0/5 in the experiment with Escherichia coli#311 (SOD (oral), 2 Mg/Kg); 0/5 in the experiment with Escherichia coli#311 (SOD (oral), 4 Mg/Kg); 0/5 in the experiment with Escherichia coli#311 (SOD (oral), 8 Mg/Kg); 0/5 in the experiment on Escherichia coli#311 (SSC (subcutaneous), 0.25 Mg/Kg). The “Survival Ratios” value in the experiment on Escherichia coli#311 (SSC (subcutaneous), 0.5 Mg/Kg) is given as 0/5; in the experiment on Escherichia coli#311 (SSC (subcutaneous), 1 Mg/Kg), 0/5; in the experiment on Escherichia coli#311 (SSC (subcutaneous), 2 Mg/Kg), 0/5; in the experiment on Escherichia coli#311 (SSC (subcutaneous), 4 Mg/Kg), 0/5; with Escherichia coli#311 (SSC (subcutaneous), 8 Mg/Kg), 0/5.

Take `COc1c(C)c(O)c2c(c1O)C1COC3C4CC5C(N4)C(C2N2CCOC52)N13` (stereo not drawn) [31F508α1]: the MIC was determined as 8 ng/mL (≈ 0.0206 µM) in the experiment on CNS (ID-3276); 2000 ng/mL (≈ 5.16 µM) in the experiment on E. coli (J2175) (with 5% sheep blood); 1000 ng/mL (≈ 2.58 µM) in the experiment with E. coli (J2175) (without sheep blood); 120 ng/mL (≈ 0.31 µM) in the experiment on E. coli (J2445) (with 5% sheep blood); 60 ng/mL (≈ 0.155 µM) with E. coli (J2445) (without sheep blood); 500 ng/mL (≈ 1.29 µM) in the experiment with E. faecalis (ID-1829) (with 5% sheep blood). The MIC is 120 ng/mL (≈ 0.31 µM) with E. faecalis (ID-1829) (without sheep blood); 250 ng/mL (≈ 0.645 µM) in the experiment with E. faecium (12202) (with 5% sheep blood); 30 ng/mL (≈ 0.0774 µM) with E. faecium (12202) (without sheep blood); 2 ng/mL (≈ 0.00516 µM) in the experiment on E. faecium (ID-4133); 2 ng/mL (≈ 0.00516 µM) with S. lutea (ATCC 9341); 8 ng/mL (≈ 0.0206 µM) in experiment [1] (with 5% sheep blood). Moreover, the MIC was 4 ng/mL (≈ 0.0103 µM) in experiment [1] (without sheep blood), 8 ng/mL (≈ 0.0206 µM) in [2] (with 5% sheep blood) and 2 ng/mL (≈ 0.00516 µM) in experiment [2] (without sheep blood). Further, the “Minimum Inhibitory Concentration” value in the experiment on E. faecium (ID-4133) (with 5% sheep blood) and with S. lutea (ATCC 9341) (with 5% sheep blood) was 0.002 µg/mL throughout.
